ChEMBL document CHEMBL2439977, “Discovery of novel bacterial RNA polymerase inhibitors: pharmacophore-based virtual screening and hit optimization” (J Med Chem, 2013)
In brackets after ≈: the same amount, converted by molar mass. Activity calls are given as the source filed them. The rule behind the calls is not given here.

Experiments:
Bacillus subtilis = assay: Antibacterial activity against Bacillus subtilis; assay type: functional
Staphylococcus aureus = assay: Antibacterial activity against Staphylococcus aureus; assay type: functional
[1] = Inhibition of Escherichia coli RNA polymerase by transcription assay
Escherichia coli [2] = assay: Antibacterial activity against Escherichia coli expressing TolC mutant; assay type: functional
Pseudomonas aeruginosa = assay: Antibacterial activity against Pseudomonas aeruginosa PAO1; assay type: functional
Escherichia coli [3] = assay: Antibacterial activity against Escherichia coli K-12; assay type: functional
Escherichia coli [4] = assay: Ratio of IC50 for Escherichia coli RNA polymerase core enzyme to IC50 for Escherichia coli RNA polymerase holo enzyme
[5] = Inhibition of Escherichia coli RNA polymerase core enzyme by transcription assay
Escherichia coli [6] = assay: Induction of resistant frequency in Escherichia coli expressing TolC mutant at 2 times MIC treated for every 3 days; assay type: functional, organism-based
Escherichia coli [7] = assay: Inhibition of lipid synthesis in Escherichia coli expressing TolC mutant at 4 times MIC after 45 mins; assay type: functional, organism-based
Escherichia coli [8] = assay: Inhibition of protein synthesis in Escherichia coli expressing TolC mutant at 4 times MIC after 45 mins; assay type: functional, organism-based
[9] = Inhibition of Escherichia coli RNA polymerase holo enzyme by transcription assay
Escherichia coli [10] = assay: Inhibition of RNA synthesis in Escherichia coli expressing TolC mutant at 4 times MIC after 45 mins; assay type: functional, organism-based
[11] = Inhibition of Escherichia coli RNA polymerase-RNA polymerase sigma factor RpoD interaction by ELISA
Escherichia coli [12] = assay: Inhibition of DNA synthesis in Escherichia coli expressing TolC mutant at 4 times MIC after 45 mins; assay type: functional, organism-based
Escherichia coli [13] = assay: Inhibition of Escherichia coli RNA polymerase at 200 uM by transcription assay
Escherichia coli [14] = assay: Inhibition of Escherichia coli RNA polymerase-RNA polymerase sigma factor RpoD interaction at 10 uM by ELISA
Escherichia coli [15] = assay: Inhibition of Escherichia coli RNA polymerase-RNA polymerase sigma factor RpoD interaction at 50 uM by ELISA
Escherichia coli [16] = assay: Inhibition of Escherichia coli RNA polymerase at 50 uM by transcription assay

O=C(Nc1cc(F)ccc1C(=O)O)c1ccc(-c2ccccc2)c(Oc2ccccc2)c1
MIC (Bacillus subtilis): > 25 µg/mL
MIC (Staphylococcus aureus): 17 µg/mL (≈ 39.8 µM)
IC50 ([1]; read-out: IC50): 13 µM
MIC (Escherichia coli [2]): > 25 µg/mL
MIC (Pseudomonas aeruginosa): > 25 µg/mL
MIC (Escherichia coli [3]): > 25 µg/mL

Cc1ccc(NC(=O)c2ccc(-c3ccccc3)cc2)c(C(=O)O)c1
IC50 ([1]; read-out: IC50): 139 µM
MIC (Escherichia coli [2]): 7 µg/mL (≈ 21.1 µM)

O=C(Nc1c(Cl)cccc1C(=O)O)c1ccc(-c2ccccc2)cc1
IC50 [1]: Not Active
MIC (Escherichia coli [2]): 55 µg/mL (≈ 156 µM)

O=C(Nc1ccc(-c2ccccc2)cc1C(=O)O)c1cccc(Oc2ccccc2)c1
MIC (Bacillus subtilis): 3 µg/mL (≈ 7.33 µM)
Ratio IC50 (Escherichia coli [4]): 2.8
MIC (Staphylococcus aureus): 6 µg/mL (≈ 14.7 µM)
IC50 [5]: 27 µM
Activity (Escherichia coli [6]): Active
inhibition (Escherichia coli [7]): inactive
inhibition (Escherichia coli [8]): inactive
IC50 ([1]; read-out: IC50): 13 µM
MIC (Escherichia coli [2]): 2 µg/mL (≈ 4.88 µM)
IC50 [9]: 16 µM
MIC (Pseudomonas aeruginosa): > 25 µg/mL
inhibition (Escherichia coli [10]): inactive
IC50 [11]: 47 µM
MIC (Escherichia coli [3]): > 25 µg/mL
inhibition (Escherichia coli [12]): inactive

O=C(Nc1ccc(F)cc1C(=O)O)c1cccc(Oc2ccccc2)c1
MIC (Bacillus subtilis): 4 µg/mL (≈ 11.4 µM)
MIC (Staphylococcus aureus): 48 µg/mL (≈ 137 µM)
IC50 ([1]; read-out: IC50): 98 µM
MIC (Escherichia coli [2]): 5 µg/mL (≈ 14.2 µM)
MIC (Pseudomonas aeruginosa): > 100 µg/mL
MIC (Escherichia coli [3]): > 100 µg/mL

COc1ccc(NC(=O)c2ccc(-c3ccccc3)cc2)c(C(=O)O)c1
MIC (Escherichia coli [2]): 8 µg/mL (≈ 23 µM)
inhibition (Escherichia coli [13]): 52%

O=C(Nc1cc(Br)ccc1C(=O)O)c1ccc(-c2ccccc2)cc1
Ratio IC50 (Escherichia coli [4]): 3
IC50 [5]: 39 µM
IC50 ([1]; read-out: IC50): 28 µM
MIC (Escherichia coli [2]): 2 µg/mL (≈ 5.05 µM)
IC50 [9]: 27 µM
IC50 [11]: 68 µM

O=C(Nc1ccc(Br)cc1C(=O)O)c1ccc(-c2ccccc2)cc1
IC50 ([1]; read-out: IC50): 31 µM
MIC (Escherichia coli [2]): 3 µg/mL (≈ 7.57 µM)

O=C(Nc1cc(Cl)ccc1C(=O)O)c1cccc(Oc2ccccc2)c1
MIC (Bacillus subtilis): 3 µg/mL (≈ 8.16 µM)
MIC (Staphylococcus aureus): 14 µg/mL (≈ 38.1 µM)
IC50 ([1]; read-out: IC50): 44 µM
MIC (Escherichia coli [2]): 3 µg/mL (≈ 8.16 µM)
MIC (Pseudomonas aeruginosa): > 50 µg/mL
MIC (Escherichia coli [3]): > 50 µg/mL

C=CCN1C(=O)/C(=C/c2ccc(-c3cccc(C(=O)O)c3)o2)SC1=S
Ratio IC50 (Escherichia coli [4]): 2.6
IC50 [5]: 57 µM
IC50 [9]: 38 µM
IC50 [11]: 30 µM

COc1cccc(NC(=O)c2ccc(-c3ccccc3)cc2)c1C(=O)O
IC50 [1]: Not Active
MIC (Escherichia coli [2]): 58 µg/mL (≈ 167 µM)

CO[C@H]1/C=C/O[C@@]2(C)Oc3c(C)c(O)c4c(O)c(c(/C=N/N5CCN(C)CC5)c(O)c4c3C2=O)NC(=O)/C(C)=C\C=C\[C@H](C)[C@H](O)[C@@H](C)[C@@H](O)[C@@H](C)[C@H](OC(C)=O)[C@@H]1C [RIFAMPIN]
MIC (Bacillus subtilis): 5 µg/mL (≈ 6.08 µM)
Ratio IC50 (Escherichia coli [4]): 1
MIC (Staphylococcus aureus): 0.02 µg/mL (≈ 0.0243 µM)
IC50 [5]: 0.016 µM
Activity (Escherichia coli [6]): Active
IC50 ([1]; read-out: IC50): 0.03 µM
MIC (Escherichia coli [2]): 10 µg/mL (≈ 12.2 µM)
IC50 [9]: 0.027 µM
MIC (Pseudomonas aeruginosa): 13 µg/mL (≈ 15.8 µM)
inhibition (Escherichia coli [14]): < 5%
MIC (Escherichia coli [3]): 7 µg/mL (≈ 8.51 µM)

O=C(Nc1ccc(Cl)cc1C(=O)O)c1ccc(-c2ccccc2)cc1
IC50 ([1]; read-out: IC50): 46 µM
MIC (Escherichia coli [2]): 2 µg/mL (≈ 5.69 µM)

O=C(Nc1ccccc1C(=O)O)c1ccc(-c2ccccc2)c(Oc2ccccc2)c1
Ratio IC50 (Escherichia coli [4]): 3
IC50 [5]: 36 µM
IC50 ([1]; read-out: IC50): 20 µM
MIC (Escherichia coli [2]): 13 µg/mL (≈ 31.8 µM)
IC50 [9]: 20 µM
inhibition (Escherichia coli [13]): 100%
IC50 [11]: 41 µM

O=C(Nc1ccc(Br)cc1C(=O)O)c1cccc(Cc2ccccc2)c1
IC50 ([1]; read-out: IC50): 37 µM
MIC (Escherichia coli [2]): 2 µg/mL (≈ 4.87 µM)

O=C(Nc1cc(Br)ccc1C(=O)O)c1cccc(Oc2ccccc2)c1
MIC (Bacillus subtilis): 3 µg/mL (≈ 7.28 µM)
MIC (Staphylococcus aureus): 8 µg/mL (≈ 19.4 µM)
IC50 ([1]; read-out: IC50): 34 µM
MIC (Escherichia coli [2]): 3 µg/mL (≈ 7.28 µM)
MIC (Pseudomonas aeruginosa): > 25 µg/mL
MIC (Escherichia coli [3]): > 25 µg/mL

COc1ccc(C(=O)O)c(NC(=O)c2ccc(-c3ccccc3)cc2)c1
IC50 ([1]; read-out: IC50): 162 µM
MIC (Escherichia coli [2]): 9 µg/mL (≈ 25.9 µM)

O=C(Nc1ccc(Br)cc1C(=O)O)c1cccc(Oc2ccccc2)c1
IC50 ([1]; read-out: IC50): 34 µM
MIC (Escherichia coli [2]): 3 µg/mL (≈ 7.28 µM)

O=C(Nc1cc(Cl)ccc1C(=O)O)c1ccc(-c2ccccc2)cc1
MIC (Bacillus subtilis): 2 µg/mL (≈ 5.69 µM)
MIC (Staphylococcus aureus): 24 µg/mL (≈ 68.2 µM)
IC50 ([1]; read-out: IC50): 37 µM
MIC (Escherichia coli [2]): 3 µg/mL (≈ 8.53 µM)
MIC (Pseudomonas aeruginosa): > 50 µg/mL
MIC (Escherichia coli [3]): > 50 µg/mL

O=C(Nc1ccccc1C(=O)O)c1ccc(-c2ccccc2)cc1
MIC (Escherichia coli [2]): 13 µg/mL (≈ 41 µM)
inhibition (Escherichia coli [13]): 31%

O=C(Nc1ccc(OC(F)(F)F)cc1C(=O)O)c1ccc(-c2ccccc2)cc1
IC50 ([1]; read-out: IC50): 31 µM
MIC (Escherichia coli [2]): 4 µg/mL (≈ 9.97 µM)

O=C(Nc1cc(C(F)(F)F)ccc1C(=O)O)c1ccc(-c2ccccc2)cc1
IC50 ([1]; read-out: IC50): 27 µM
MIC (Escherichia coli [2]): 5 µg/mL (≈ 13 µM)

O=C(Nc1cccc(Cl)c1C(=O)O)c1ccc(-c2ccccc2)cc1
inhibition (Escherichia coli [15]): < 10%
IC50 [1]: Not Active
MIC (Escherichia coli [2]): 57 µg/mL (≈ 162 µM)

O=C(Nc1ccc(O)cc1C(=O)O)c1ccc(-c2ccccc2)cc1
MIC (Escherichia coli [2]): 31 µg/mL (≈ 93 µM)
inhibition (Escherichia coli [13]): 17%

O=C(Nc1ccc(F)cc1C(=O)O)c1ccc(-c2ccccc2)cc1
IC50 ([1]; read-out: IC50): 138 µM
MIC (Escherichia coli [2]): 7 µg/mL (≈ 20.9 µM)

N#Cc1ccc(NC(=O)c2ccc(-c3ccccc3)cc2)c(C(=O)O)c1
inhibition (Escherichia coli [16]): 23%
MIC (Escherichia coli [2]): 7 µg/mL (≈ 20.4 µM)

COc1cc(NC(=O)c2cccc(Oc3ccccc3)c2)c(C(=O)O)cc1OC
IC50 ([1]; read-out: IC50): 154 µM
MIC (Escherichia coli [2]): 6 µg/mL (≈ 15.3 µM)

COc1cc(NC(=O)c2ccc(-c3ccccc3)cc2)c(C(=O)O)cc1OC
MIC (Escherichia coli [2]): 19 µg/mL (≈ 50.3 µM)
inhibition (Escherichia coli [13]): 35%

CCCN(CCC)S(=O)(=O)c1ccc(C(=O)Nc2cc3ccccc3cc2C(=O)O)cc1
Ratio IC50 (Escherichia coli [4]): 2.6
IC50 [5]: 81 µM
IC50 [9]: 52 µM
IC50 [11]: 97 µM

O=C(Nc1ccc(C(F)(F)F)cc1C(=O)O)c1ccc(-c2ccccc2)cc1
MIC (Bacillus subtilis): 4 µg/mL (≈ 10.4 µM)
Ratio IC50 (Escherichia coli [4]): 4
MIC (Staphylococcus aureus): 5 µg/mL (≈ 13 µM)
IC50 [5]: 67 µM
Activity (Escherichia coli [6]): Active
IC50 ([1]; read-out: IC50): 28 µM
MIC (Escherichia coli [2]): 2 µg/mL (≈ 5.19 µM)
IC50 [9]: 28 µM
MIC (Pseudomonas aeruginosa): > 50 µg/mL
IC50 [11]: 60 µM
MIC (Escherichia coli [3]): > 50 µg/mL

O=C(Nc1ccccc1C(=O)O)c1cccc(Oc2ccccc2)c1
MIC (Escherichia coli [2]): 9 µg/mL (≈ 27 µM)
inhibition (Escherichia coli [13]): 23%

CCCC/C(C)=C/C=C(\C)C(=O)c1c(O)cc([C@H](C)CC/C=C/NC(=O)OC)oc1=O [MYXOPYRONIN B]
MIC (Bacillus subtilis): 0.9 µg/mL (≈ 2.09 µM)
MIC (Staphylococcus aureus): 0.5 µg/mL (≈ 1.16 µM)
IC50 ([1]; read-out: IC50): 0.35 µM
MIC (Escherichia coli [2]): 1 µg/mL (≈ 2.32 µM)
MIC (Pseudomonas aeruginosa): > 25 µg/mL
MIC (Escherichia coli [3]): > 25 µg/mL

O=C(Nc1cc([N+](=O)[O-])ccc1C(=O)O)c1ccc(-c2ccccc2)cc1
IC50 ([1]; read-out: IC50): 36 µM
MIC (Escherichia coli [2]): > 25 µg/mL

O=C(Nc1cc(Cl)ccc1C(=O)O)c1ccc(-c2ccccc2)c(Oc2ccccc2)c1
Ratio IC50 (Escherichia coli [4]): 2.9
IC50 [5]: 12 µM
IC50 ([1]; read-out: IC50): 9 µM
MIC (Escherichia coli [2]): > 25 µg/mL
IC50 [9]: 7 µM
IC50 [11]: 33 µM

O=C(Nc1ccccc1C(=O)O)c1ccccc1
IC50 [1]: Not Active
MIC (Escherichia coli [2]): > 100 µg/mL

O=C(Nc1cccc(F)c1C(=O)O)c1ccc(-c2ccccc2)cc1
MIC (Escherichia coli [2]): 34 µg/mL (≈ 101 µM)
inhibition (Escherichia coli [13]): 14%

O=C(Nc1cc(F)ccc1C(=O)O)c1ccc(-c2ccccc2)cc1
IC50 ([1]; read-out: IC50): 98 µM
MIC (Escherichia coli [2]): 4 µg/mL (≈ 11.9 µM)

O=C(Nc1cc(-c2ccccc2)ccc1C(=O)O)c1cccc(Oc2ccccc2)c1
IC50 ([1]; read-out: IC50): 14 µM
MIC (Escherichia coli [2]): 8 µg/mL (≈ 19.5 µM)
